Reference: ChEMBL document CHEMBL1155851, “Synthesis of some novel imidazole-based dicationic carbazolophanes as potential antibacterials” (2008)
Values after ≈ are worked out from the molar mass of the structure shown. Active and inactive are the calls of the source. The calls are words filed in the database; no cut-off is given here.

Legend:
Salmonella typhi = assay: Antimicrobial activity against Salmonella typhi; assay type: functional, Salmonella enterica subsp. enterica serovar Typhi; settings: Salmonella enterica
Proteus vulgaris = assay: Antimicrobial activity against Proteus vulgaris; assay type: functional
Proteus mirabilis = assay: Antimicrobial activity against Proteus mirabilis; assay type: functional
Staphylococcus aureus [1] = assay: Antimicrobial activity against Staphylococcus aureus; assay type: functional
Pseudomonas aeruginosa = assay: Antimicrobial activity against Pseudomonas aeruginosa; assay type: functional
Staphylococcus aureus [2] = tested on: Staphylococcus aureus

`CCn1c2ccc3cc2c2cc(ccc21)C(=O)c1ccc(cc1)Cn1cc[n+](c1)Cc1cccc(n1)C[n+]1ccn(c1)Cc1ccc(cc1)C3=O.[Br-].[Br-]` was tested, and the MIC (Salmonella typhi) was 15 µg/mL, the MIC (Proteus vulgaris) was 25 µg/mL and the MIC (Proteus mirabilis) was 20 µg/mL. The MIC (Staphylococcus aureus [1]) was 12 µg/mL and the MIC (Pseudomonas aeruginosa) was 30 µg/mL.

Compound `CCn1c2ccc3cc2c2cc(ccc21)C(=O)c1ccc(cc1)Cn1cc[n+](c1)Cc1ccc(cc1)C(=O)c1ccc2c(c1)c1cc(ccc1n2CC)C(=O)c1ccc(cc1)C[n+]1ccn(c1)Cc1ccc(cc1)C3=O.[Br-].[Br-]` has an MIC (Salmonella typhi) of 25 µg/mL, an MIC (Proteus vulgaris) of 40 µg/mL and an MIC (Proteus mirabilis) of 35 µg/mL. It also gave an MIC (Staphylococcus aureus [1]) of 25 µg/mL and an MIC (Pseudomonas aeruginosa) of 55 µg/mL.

With `CCn1c2ccc3cc2c2cc(ccc21)C(=O)c1ccc(cc1)Cn1cc[n+](c1)Cc1cc([N+](=O)[O-])cc(c1O)C[n+]1ccn(c1)Cc1ccc(cc1)C3=O.[Br-].[Br-]` the MIC (Salmonella typhi) was 20 µg/mL, the MIC (Proteus vulgaris) was 30 µg/mL and the MIC (Proteus mirabilis) was 20 µg/mL. The MIC (Staphylococcus aureus [1]) was 20 µg/mL and the MIC (Pseudomonas aeruginosa) was 35 µg/mL.

Compound `CCn1c2ccc3cc2c2cc(ccc21)C(=O)c1ccc(cc1)Cn1cc[n+](c1)Cc1ccc(cc1)-c1cccc(c1)-c1ccc(cc1)C[n+]1ccn(c1)Cc1ccc(cc1)C3=O.[Br-].[Br-]` has an MIC (Salmonella typhi) of 55 µg/mL, an MIC (Proteus vulgaris) of 70 µg/mL and an MIC (Proteus mirabilis) of 75 µg/mL. For the same compound, the MIC (Staphylococcus aureus [1]) was 75 µg/mL and the MIC (Pseudomonas aeruginosa) was 75 µg/mL.

In the case of `CCn1c2ccc3cc2c2cc(ccc21)C(=O)c1ccc(cc1)Cn1c[n+](c2ccccc21)Cc1cc([N+](=O)[O-])cc(c1O)C[n+]1cn(c2ccccc21)Cc1ccc(cc1)C3=O.[Br-].[Br-]`, the MIC (Salmonella typhi) is reported as 15 µg/mL, the MIC (Proteus vulgaris) is reported as 35 µg/mL and the MIC (Proteus mirabilis) is reported as 30 µg/mL. It also gave an MIC (Staphylococcus aureus [1]) of 20 µg/mL and an MIC (Pseudomonas aeruginosa) of 30 µg/mL.

`CCn1c2ccc3cc2c2cc(ccc21)C(=O)c1ccc(cc1)Cn1c[n+](c2ccccc21)Cc1ccc(cc1)-c1cccc(c1C(=O)O)-c1ccc(cc1)C[n+]1cn(c2ccccc21)Cc1ccc(cc1)C3=O.[Br-].[Br-]` was tested, and the MIC (Salmonella typhi) was 50 µg/mL, the MIC (Proteus vulgaris) was 60 µg/mL and the MIC (Staphylococcus aureus [2]) was “inactive”. The MIC (Proteus mirabilis) was 55 µg/mL and the MIC (Pseudomonas aeruginosa) was 70 µg/mL.

Compound `CCn1c2ccc3cc2c2cc(ccc21)C(=O)c1ccc(cc1)Cn1c[n+](c2ccccc21)Cc1ccc(cc1)-c1cccc(c1)-c1ccc(cc1)C[n+]1cn(c2ccccc21)Cc1ccc(cc1)C3=O.[Br-].[Br-]` has an MIC (Salmonella typhi) of 45 µg/mL, an MIC (Proteus vulgaris) of 50 µg/mL and an MIC (Proteus mirabilis) of 50 µg/mL. It also gave an MIC (Staphylococcus aureus [1]) of 45 µg/mL and an MIC (Pseudomonas aeruginosa) of 65 µg/mL.

`CCn1c2ccc3cc2c2cc(ccc21)C(=O)c1ccc(cc1)Cn1c[n+](c2ccccc21)Cc1cccc(n1)C[n+]1cn(c2ccccc21)Cc1ccc(cc1)C3=O.[Br-].[Br-]` showed an MIC (Salmonella typhi) of 15 µg/mL, an MIC (Proteus vulgaris) of 15 µg/mL and an MIC (Proteus mirabilis) of 10 µg/mL. The MIC (Staphylococcus aureus [1]) was 8 µg/mL and the MIC (Pseudomonas aeruginosa) was 20 µg/mL.

`CN(C)[C@@H]1C(O)=C(C(N)=O)C(=O)[C@@]2(O)C(O)=C3C(=O)c4c(O)cccc4[C@@](C)(O)[C@H]3C[C@@H]12` [TETRACYCLINE] was tested, and the MIC (Salmonella typhi) was 15 µg/mL (≈ 33.8 µM), the MIC (Proteus vulgaris) was 35 µg/mL (≈ 78.8 µM) and the MIC (Proteus mirabilis) was 20 µg/mL (≈ 45 µM). The MIC (Staphylococcus aureus [1]) was 20 µg/mL (≈ 45 µM) and the MIC (Pseudomonas aeruginosa) was 35 µg/mL (≈ 78.8 µM).

`CCn1c2ccc3cc2c2cc(ccc21)C(=O)c1ccc(cc1)Cn1cc[n+](c1)Cc1ccc(cc1)-c1cccc(c1C(=O)O)-c1ccc(cc1)C[n+]1ccn(c1)Cc1ccc(cc1)C3=O.[Br-].[Br-]` gave an MIC (Salmonella typhi) of 35 µg/mL, an MIC (Proteus vulgaris) of 65 µg/mL and an MIC (Proteus mirabilis) of 50 µg/mL. It also gave an MIC (Staphylococcus aureus [1]) of 35 µg/mL and an MIC (Pseudomonas aeruginosa) of 80 µg/mL.

`CCn1c2ccc3cc2c2cc(ccc21)C(=O)c1ccc(cc1)Cn1c[n+](c2ccccc21)Cc1ccc(cc1)C(=O)c1ccc2c(c1)c1cc(ccc1n2CC)C(=O)c1ccc(cc1)C[n+]1cn(c2ccccc21)Cc1ccc(cc1)C3=O.[Br-].[Br-]` gave an MIC (Salmonella typhi) of 25 µg/mL, an MIC (Proteus vulgaris) of 30 µg/mL and an MIC (Proteus mirabilis) of 30 µg/mL. It also gave an MIC (Staphylococcus aureus [1]) of 26 µg/mL and an MIC (Pseudomonas aeruginosa) of 35 µg/mL.

`CCn1c2ccc3cc2c2cc(ccc21)C(=O)c1ccc(cc1)Cn1c[n+](c2ccccc21)Cc1cc(OC)c(cc1OC)C[n+]1cn(c2ccccc21)Cc1ccc(cc1)C3=O.[Br-].[Br-]` was tested, and the MIC (Salmonella typhi) was 40 µg/mL, the MIC (Proteus vulgaris) was 45 µg/mL and the MIC (Proteus mirabilis) was 55 µg/mL. The MIC (Pseudomonas aeruginosa) was 70 µg/mL.
